Results reported in ChEMBL document CHEMBL1147908, “Preparation of novel anthranilic acids as antibacterial agents. Extensive evaluation of alternative amide bioisosteres connecting the A- and the B-rings” (2007).
Converted amounts (≈) assume the structure as drawn.

Tests used:
Format in all cases: functional
Staphylococcus aureus = assay: Antibacterial activity against Staphylococcus aureus UC 9218
Streptococcus pneumoniae = assay: Antibacterial activity against Streptococcus pneumoniae UC 9912
[1] = system: Staphylococcus epidermidis; assay: Antibacterial activity against Staphylococcus epidermidis UC 12084
Haemophilus influenzae = assay: Antibacterial activity against Haemophilus influenzae 30063
Enterococcus faecalis = assay: Antibacterial activity against Enterococcus faecalis UC 9217

| MIC (Staphylococcus aureus) | MIC (Streptococcus pneumoniae) | MIC [1] | MIC (Haemophilus influenzae) | MIC (Enterococcus faecalis) | Compound |
| --- | --- | --- | --- | --- | --- |
| 16 µg/mL (≈ 34.4 µM) | 64 µg/mL (≈ 138 µM) | 32 µg/mL (≈ 68.8 µM) | > 128 µg/mL | > 128 µg/mL | N#Cc1ccc(C=Cc2cccc(S(=O)(=O)N3CCc4cc(Cl)ccc43)c2)c(C(=O)O)c1 |
| 128 µg/mL (≈ 286 µM) | > 128 µg/mL | 128 µg/mL (≈ 286 µM) | > 128 µg/mL | > 128 µg/mL | O=C(O)c1cc(Cl)ccc1-c1ccc(S(=O)(=O)N2CCc3cc(Cl)ccc32)cc1 |
| > 128 µg/mL | > 128 µg/mL | 64 µg/mL (≈ 159 µM) | > 128 µg/mL | > 128 µg/mL | Cc1ccc(S(=O)(=O)Nc2ccc(-c3ccc(Cl)cc3)c(C(=O)O)c2)cc1 |
| 0.25 µg/mL (≈ 0.538 µM) | > 128 µg/mL | 0.5 µg/mL (≈ 1.08 µM) | > 128 µg/mL | 128 µg/mL (≈ 275 µM) | N#Cc1ccc(/C=C/c2cccc(S(=O)(=O)N3CCc4cc(Cl)ccc43)c2)c(C(=O)O)c1 |
| > 128 µg/mL | > 128 µg/mL | > 128 µg/mL | > 128 µg/mL | > 128 µg/mL | O=C(O)c1cc(Br)ccc1-c1nnc(-c2ccccc2)o1 |
| > 128 µg/mL | > 128 µg/mL | > 128 µg/mL | > 128 µg/mL | > 128 µg/mL | O=C(O)c1cc(Br)ccc1-c1nnc(-c2ccccc2)[nH]1 |
| 0.5 µg/mL (≈ 0.933 µM) | 4 µg/mL (≈ 7.47 µM) | 4 µg/mL (≈ 7.47 µM) | 128 µg/mL (≈ 239 µM) | 32 µg/mL (≈ 59.7 µM) | O=C(Nc1ccc(Br)cc1C(=O)O)c1ccc(S(=O)(=O)N2CCc3cc(Cl)ccc32)cc1 |
| 4 µg/mL (≈ 8.35 µM) | > 128 µg/mL | 8 µg/mL (≈ 16.7 µM) | 16 µg/mL (≈ 33.4 µM) | > 128 µg/mL | N#Cc1ccc([C@H]2C[C@@H]2c2cccc(S(=O)(=O)N3CCc4cc(Cl)ccc43)c2)c(C(=O)O)c1 |
| 0.125 µg/mL (≈ 0.251 µM) | 16 µg/mL (≈ 32.1 µM) | 0.125 µg/mL (≈ 0.251 µM) | 64 µg/mL (≈ 129 µM) | 32 µg/mL (≈ 64.3 µM) | N#Cc1ccc(NC(=S)c2cccc(S(=O)(=O)N3CCc4cc(Cl)ccc43)c2)c(C(=O)O)c1 |
| 32 µg/mL (≈ 67.2 µM) | 32 µg/mL (≈ 67.2 µM) | 32 µg/mL (≈ 67.2 µM) | > 128 µg/mL | > 128 µg/mL | O=C(O)c1cc(Cl)ccc1CCc1ccc(S(=O)(=O)N2CCc3cc(Cl)ccc32)cc1 |
